Measured values: ChEMBL document CHEMBL1147696, “Discovery of bitriazolyl compounds as novel antiviral candidates for combating the tobacco mosaic virus” (2006)

Legend:
Format in all cases: functional
Tobacco mosaic virus [1] = experiment: Antiviral activity against TMV; parameters: concentration or dose not given beside the values
Tobacco mosaic virus [2] = experiment: Induction of systemic acquired resistance of tobacco plant against TMV at 100 ug/ml by leaf spray treatment
Tobacco mosaic virus [3] = experiment: Induction of systemic acquired resistance of tobacco plant against TMV at 100 ug/ml by soil treatment

| SMILES | Activity (Tobacco mosaic virus [1]) | Activity (Tobacco mosaic virus [2]) | Activity (Tobacco mosaic virus [3]) |
| --- | --- | --- | --- |
| NC(=O)c1ncn([C@@H]2O[C@H](CO)[C@@H](O)[C@H]2O)n1 [RIBAVIRIN] | 49% |  |  |
| NC(=O)c1n[nH]c(-n2cc(C3=CCCCC3)nn2)n1 | 7% |  |  |
| NC(=O)c1cn(-c2n[nH]c(C(N)=O)n2)nn1 | 0% |  |  |
| COC(=O)c1n[nH]c(-n2cc(-c3ccccc3)nn2)n1 | 63% | 10% | 10% |
| CCOC(=O)c1cn(-c2n[nH]c(C(=O)OC)n2)nn1 | 20% |  |  |
| COC(=O)c1n[nH]c(-n2cc(-c3ccc(F)cc3)nn2)n1 | 12% |  |  |
| COC(=O)c1n[nH]c(-n2cc(C3(O)CCCC3)nn2)n1 | 10% |  |  |
| O=C1NCNC(=O)N1 | 45% |  |  |
| NC(=O)c1n[nH]c(-n2cc(CO)nn2)n1 | 8% |  |  |
| COc1ccc(-c2cn(-c3n[nH]c(C(N)=O)n3)nn2)cc1 | 0% |  |  |
| COC(=O)c1n[nH]c(-n2cc(C3=CCCCC3)nn2)n1 | 75% | 0% | 0% |
| NC(=O)c1n[nH]c(-n2cc(C3(O)CCCCC3)nn2)n1 | 0% |  |  |
| Cc1ccc(-c2cn(-c3n[nH]c(C(N)=O)n3)nn2)cc1 | 6% |  |  |
| COC(=O)c1n[nH]c(-n2cc(C3(O)CCCCC3)nn2)n1 | 17% |  |  |
| CSC(=O)c1cccc2nnsc12 [ACIBENZOLAR-S-METHYL] |  | 95% | 96% |
| NC(=O)c1n[nH]c(-n2cc(C3(O)CCCC3)nn2)n1 | 13% |  |  |
| CCCCCc1ccc(-c2cn(-c3n[nH]c(C(N)=O)n3)nn2)cc1 | 28% |  |  |
| COC(=O)c1n[nH]c(-n2cc(-c3ccc(C)cc3)nn2)n1 | 10% |  |  |
| NC(=O)c1n[nH]c(-n2cc(-c3ccc(F)cc3)nn2)n1 | 0% |  |  |
| COC(=O)c1n[nH]c(-n2cc(-c3ccc(OC)cc3)nn2)n1 | 15% |  |  |
| NC(=O)c1n[nH]c(-n2cc(-c3ccccc3)nn2)n1 | 0% |  |  |
| COC(=O)c1n[nH]c(-n2cc(COC(C)=O)nn2)n1 | 36% |  |  |
| CCCCCc1ccc(-c2cn(-c3n[nH]c(C(=O)OC)n3)nn2)cc1 | 23% |  |  |
